Data from patent publication US20040087590A1, “Novel biphenyl and biphenyl-like cannabinoids” (University of Connecticut, priority 2002, published 2004).
Like-named read-outs stand apart in the source and are kept apart here.

Assays:
[1] = target: T1, CB1 cannabinoid receptor (Rattus norvegicus, UniProt P20272); experiment: CB1 receptor binding assay ([3H] CP-55,940 displacement, rat forebrain membranes); conditions: 0.8 nM [3H] CP-55,940, read-out: CB1 (nM) binding affinity (Ki)
T1 construct: membranes were prepared from rat forebrain membranes; from tissue; host or cells: rat forebrain membranes
T1 sequence (P20272 whole entry): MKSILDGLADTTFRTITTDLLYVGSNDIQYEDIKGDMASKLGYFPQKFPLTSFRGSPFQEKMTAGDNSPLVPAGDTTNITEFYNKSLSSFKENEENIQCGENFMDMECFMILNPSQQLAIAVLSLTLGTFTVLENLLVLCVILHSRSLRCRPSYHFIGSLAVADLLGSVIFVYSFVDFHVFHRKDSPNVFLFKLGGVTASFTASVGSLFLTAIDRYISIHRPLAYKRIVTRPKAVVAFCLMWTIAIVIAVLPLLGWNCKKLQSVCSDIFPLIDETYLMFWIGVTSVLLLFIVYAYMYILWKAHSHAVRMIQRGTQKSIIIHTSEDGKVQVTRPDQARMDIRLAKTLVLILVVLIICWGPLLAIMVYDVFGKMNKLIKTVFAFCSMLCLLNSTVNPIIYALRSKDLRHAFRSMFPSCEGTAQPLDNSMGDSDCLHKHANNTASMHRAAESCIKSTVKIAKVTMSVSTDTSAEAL
Protocol: Some inventive analogs were tested for CB2 receptor binding affinity and for CB1 receptor affinity (to determine selectivity). As used herein, “binding affinity” is represented by the Ki value which is the inhibition constant correlated with the concentration of an analog required to occupy the 50% of the total number (Bmax) of the receptors. The lower the Ki value, the higher the binding affinity. […] For the CB1 receptor binding studies, membranes were prepared from rat forebrain membranes according to the procedure of P. R. Dodd et al, A Rapid Method for Preparing Synaptosomes: Comparison with Alternative Procedures, Brain Res., 107-118 (1981). The binding of the novel analogues to the CB1 cannabinoid receptor was assessed as described in W. A. Devane et al, Determination and Characterization of a Cannabinoid Receptor in a Rat Brain, Mol. Pharmacol., 34, 605-613 (1988) and A. Charalambous et al, 5′-azido Δ^8-THC: A Novel Photoaffinity Label for the Cannabinoid Receptor, J. Med. Chem., 35, 3076-3079 (1992) with the following changes. The above articles are incorporated by reference herein.
Membranes, previously frozen at −80° C., were thawed on ice. To the stirred suspension was added three volumes of TME (25 mM Tris-HCl buffer, 5 mM MgCl2 and 1 mM EDTA) at a pH 7.4. The suspension was incubated at 4° C. for 30 min. At the end of the incubation, the membranes were pelleted and washed three times with TME.
The treated membranes were subsequently used in the binding assay described below. Approximately 30 μg of membranes were incubated in silanized 96-well microtiter plate with TME containing 0.1% essentially fatty acid-free bovine serum albumin (BSA), 0.8 nM [^3H] CP-55,940, and various concentrations of test materials in a final volume of 200 μL. The assays were incubated for 1 hour at 30° C. and then immediately filtered using Packard Filtermate 196 harvester and Whatman GF/C filterplates and washed with wash buffer (TME) containing 0.5% BSA. Radioactivity was detected using MicroScint 20 scintillation cocktail added directly to the dried filterplates, and the filterplates were counted using a Packard Instruments Top-Count. Nonspecific binding was assessed using 100 nM CP-55,940. Data collected from three independent experiments performed with duplicate determinations was normalized between 100% and 0% specific binding for [^3H] CP-55,940, determined using buffer and 100 nM CP-55,940. The normalized data was analyzed using a 4-parameter nonlinear logistic equation to yield IC50 values. Data from at least two independent experiments performed in duplicate was used to calculate IC50 values which were converted to Ki values using the assumptions of Cheng et al, Relationship Between the Inhibition Constant (Ki) and the concentration of Inhibitor which causes 50% Inhibition (IC50) of an Enzymatic Reaction, Biochem. Pharmacol., 22, 3099-3102, (1973), which is incorporated by reference herein.

[2] = target: T2, CB2 receptor (Mus musculus, UniProt P47936); experiment: CB2 receptor binding assay ([3H] CP-55,940 displacement, mouse spleen membranes)
T2 construct: membranes were prepared from frozen mouse spleen; from tissue; host or cells: frozen mouse spleen membranes
T2 sequence (P47936 whole entry): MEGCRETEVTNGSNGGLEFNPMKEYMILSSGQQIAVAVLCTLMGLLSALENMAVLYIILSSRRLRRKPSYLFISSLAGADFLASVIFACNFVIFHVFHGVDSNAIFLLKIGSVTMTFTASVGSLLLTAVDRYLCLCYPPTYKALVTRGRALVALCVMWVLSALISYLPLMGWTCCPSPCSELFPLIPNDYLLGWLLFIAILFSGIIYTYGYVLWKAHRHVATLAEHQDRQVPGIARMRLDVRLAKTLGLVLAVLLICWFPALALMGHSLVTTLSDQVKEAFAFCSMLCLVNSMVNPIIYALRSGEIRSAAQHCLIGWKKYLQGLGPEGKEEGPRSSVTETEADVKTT
Protocol: The treated membranes were subsequently used in the binding assay described below. Approximately 30 μg of membranes were incubated in silanized 96-well microtiter plate with TME containing 0.1% essentially fatty acid-free bovine serum albumin (BSA), 0.8 nM [^3H] […] Radioactivity was detected using MicroScint 20 scintillation cocktail added directly to the dried filterplates, and the filterplates were counted using a Packard Instruments Top-Count. […] Data collected from three independent experiments performed with duplicate determinations was normalized between 100% and 0% specific binding for [^3H] […] The normalized data was analyzed using a 4-parameter nonlinear logistic equation to yield IC50 values.
Silanized centrifuge tubes were used throughout to minimize receptor loss due to adsorption. The CB2 binding assay was conducted in the same manner as for the CB1 binding assay. The binding affinities (Ki) were also expressed in nanomoles (nM).

[3] = mouse spleen membranes, [3H] CP-55,940, read-out: CB2 (nM) binding affinity (Ki)

Row | Structure (SMILES) | Ki [1] [nM] | Ki [2, 3] [nM] | Ki [2] [nM]
1 | CCCCCCC(C)(C)c1cc(O)c(-c2cc(C)ccc2F)c(O)c1 [Compound 5] | 6.5 | 2.3 | 
2 | CCCCCCC(C)(C)c1cc(O)c(-c2cc(C)c(OC)c(C)c2)c(O)c1 [Compound 11] | 1080 | 12.8 | 
3 | CCCCCCC(C)(C)c1cc(O)c(-c2cc(Cl)cc(Cl)c2)c(O)c1 [Compound 1] | 2.6 | 0.6 | 
4 | CCCCCCC(C)(C)c1cc(O)c(-c2cc(C)c(O)c(C)c2)c(O)c1 [Compound 10] | 1360 | 15.3 | 
5 | CCCCCCC(C)(C)c1cc(O)c(-c2cc(Br)ccc2CO)c(O)c1 [Compound 32] | 8.6 |  | 0.7
6 | CCCCCCC(C)(C)c1cc(O)c(-c2cccc(C#N)c2)c(O)c1 [Compound 31] | 20 | 1.1 | 
7 | CCCCCCC(C)(C)c1cc(O)c(-c2c(F)cccc2F)c(O)c1 [Compound 8] | 40.3 | 13.4 | 
8 | CCCCCCC(C)(C)c1cc(O)c(-c2cncc(C(=O)OCC)c2)c(O)c1 [Compound 21] | 17.2 |  | 0.2
9 | CCCCCCC(C)(C)c1cc(O)c(-c2cc(O)ccc2CCCO)c(O)c1 [Compound 25] | 12.2 | 1 | 
10 | CCCCCCC(C)(C)c1cc(O)c(-c2cc(Cl)cc(Cl)c2)c(OC)c1 [Compound 7] | 105 | 13.9 | 
11 | CCCCCCC(C)(C)c1cc(O)c(-c2cc(C)c(N)c(C)c2)c(O)c1 [Compound 12] | 797 | 8 | 
12 | CCCCCCCN(C)c1cc(O)c(-c2cc(OC)ccc2C(=O)N(C(C)C)C(C)C)c(OC)c1 [Compound 36] | 1870 |  | 154
13 | CCCCCCC(C)(C)c1cc(O)c(-c2cc(F)cc(F)c2)c(O)c1 [Compound 4] | 57.5 | 8.4 | 
14 | CCCCCCC(C)(C)c1cc(O)c(-c2cc([N+](=O)[O-])cc([N+](=O)[O-])c2)c(O)c1 [Compound 3] | 199 | 3.5 | 
15 | CCCCCCC(C)(C)c1cc(O)c(-c2cc(F)ccc2CO)c(O)c1 [Compound 26] | 24.5 | 1.8 | 
16 | CCCCCCC(C)(C)c1cc(O)c(-c2cc(CO)ccc2C)c(O)c1 [Compound 28] | 70.4 | 7 | 
17 | CCCCCCC(C)(C)c1cc(O)c(-c2cccc(/C=C/C(=O)OCC)c2)c(O)c1 [Compound 30] | 397 | 10 | 
18 | CCCCCCC(C)(C)c1cc(O)c(-c2ccc(C(=O)OCC)o2)c(O)c1 [Compound 29] | 3220 |  | 35.4
19 | CCCCCCC(C)(C)c1cc(O)c(-c2c(Cl)ccc(Cl)c2Cl)c(O)c1 [Compound 9] | 23.2 |  | 3.4
20 | CCCCCCC(C)(C)c1cc(O)c(-c2cc(CO)ccc2CO)c(O)c1 [Compound 27] | 29.6 | 2.6 | 
21 | CCCCCCC(C)(C)c1cc(O)c(-c2cc(C(F)(F)F)cc(C(F)(F)F)c2)c(O)c1 [Compound 2] | 9.7 | 0.9 | 
22 | CCCCCCC(C)(C)c1cc(O)c(-c2cc(Cl)ccc2Cl)c(O)c1 [Compound 6] | 7.7 | 2.6 | 
23 | CCCCCCC(C)(C)c1cc(O)c(-c2cccc(C(=O)OCC)c2)c(O)c1 [Compound 22] | 241 | 0.8 | 
24 | CCCCCCC(C)(C)c1cc(O)c(-c2cccc(C(C)=O)c2)c(O)c1 [Compound 24] | 297 |  | 11.3
25 | CCCCCCC(C)(C)c1cc(O)c(-c2cc(O)ccc2CO)c(O)c1 [Compound 15] | 141 |  | 4.5
26 | CCCCCCC(C)(C)c1cc(O)c(-c2ccccc2CO)c(O)c1 [Compound 14] | 53.8 | 1.4 | 
